Experiment: Particle size of the drug substances
Assay type: physicochemical

## CC(=O)O[C@H]1CC[C@@]2(C)C(=CC[C@@H]3[C@@H]2CC[C@]2(C)C(c4cccnc4)=CC[C@@H]32)C1 [Abiraterone acetate]
  d50 particle size of drug substance: 4-5 μm

## Cc1ccc(S(=O)(=O)O)cc1.NC(=O)c1cccc2cn(-c3ccc([C@@H]4CCCNC4)cc3)nc12 [niraparib tosylate monohydrate, 2-[4-[(3S)-piperidin-3-yl]phenyl]-2H-indazole-7-carboxamide tosylate monohydrate]
  d50 particle size of drug substance: around 50 μm

From patent publication US20230226081A1, “PHARMACEUTICAL FORMULATIONS OF ABIRATERONE ACETATE AND NIRAPARIB” (Janssen Pharmaceutica NV, priority 2020, published 2023)
